According to patent US11000033B2, “Ketone or oxime compound, and herbicide” (NISSAN CHEMICAL CORPORATION, priority 2014, dated 2021):

What was measured:
Format in all cases: in vivo
Monochoria vaginalis = experiment: Test Example 2: herbicidal activity, application during weed generation in submerged conditions (symbol C); details: Table 23; application herbicide amount 320 g/ha; grade 0-5 by criteria of Test Example 1
Outline: (§1)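 Seeds sown in flooded alluvial soil (4 cm water) were grown in a 25-30° C greenhouse. At the one- to two-leaf stage, diluted emulsion of compound was applied to the water surface at a predetermined rate. Effect was scored 3 weeks later.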

Alopecurus myosuroides [1] = experiment: Test Example 5: herbicidal effect by foliage application, plastic box (symbol J); details: 320 g/ha, 3 weeks after application
Outline: (§2)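 Effect is rated 3 weeks after a foliar spray of water-diluted emulsion concentrate at a predetermined herbicide amount. Plants had grown 14 days in a 25° C. to 30° C. greenhouse from seed in sterilized diluvial soil.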

wheat [2] = experiment: Test Example 4: effect on crop by soil treatment (symbol e); details: application herbicide amount 320 g/ha
Outline: (§3)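 Steps: fill box with sterilized diluvial soil; sow seed spot-like; cover with ~1.5 cm soil; grow in greenhouse (25° C. to 30° C.).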

soybean = experiment: Test Example 4: effect on crop by soil treatment (symbol d); details: application herbicide amount 320 g/ha
Outline: as §3

[3] = tested on: Echinochloa oryzacola Vasing.; experiment: Test Example 2: herbicidal activity, application during weed generation in submerged conditions (symbol A); details: Table 23; application herbicide amount 320 g/ha; grade 0-5 by criteria of Test Example 1
Outline: as §1

Amaranthus retroflexus = experiment: Test Example 5: herbicidal effect by foliage application, plastic box (symbol N); details: 320 g/ha, 3 weeks after application
Outline: as §2

[4] = tested on: Echinochloa oryzacola Vasing.; experiment: Test Example 1: herbicidal activity, application before weed generation in submerged conditions (symbol A); details: application herbicide amount 320 g/ha
Outline: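 0–5 visual score, 3 wk post-application. Submerged pots, alluvial soil, water 4 cm; seeds sown mixed, rice at 2.5 leaves transplanted. Emulsion diluted to predetermined dose, applied to water surface at sowing. 25–30 °C greenhouse.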

Alopecurus myosuroides [5] = experiment: Test Example 4: herbicidal effect by soil treatment (symbol J); details: application herbicide amount 320 g/ha
Outline: (§4)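 Seeds were sown in sterilized diluvial soil, covered with about 1.5 cm of soil, and the soil surface was sprayed with a water-diluted emulsion of the compound at a predetermined rate. Plants grew in a greenhouse at 25° C. to 30° C.; effects were scored visually 3 weeks after application.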

beet = experiment: Test Example 4: effect on crop by soil treatment (symbol f); details: application herbicide amount 320 g/ha
Outline: as §3

Cyperus difformis = experiment: Test Example 3: herbicidal effect by foliage application, Wagner pot (symbol E); details: application herbicide amount 320 g/ha
Outline: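 Plants sown in submerged alluvial soil (water depth 0.1–0.5 cm) in a 25–30 °C greenhouse and grown 14 days. An emulsion of the compound diluted in water to a set herbicide amount was sprayed uniformly on foliage. Effect on each plant scored 3 weeks after application.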

wheat [6] = experiment: Test Example 5: effect on crop by foliage application, plastic box (symbol e); details: 320 g/ha, 3 weeks after application
Outline: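 Crop and weed seeds sown in spots in sterilized diluvial soil in plastic boxes and covered with about 1.5 cm soil. Plants raised in a greenhouse at 25° C. to 30° C. for foliar application.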

[7] = tested on: Echinochloa crus-galli var. crus-galli; experiment: Test Example 4: herbicidal effect by soil treatment (symbol H); details: application herbicide amount 320 g/ha
Outline: as §4

| Structure (SMILES) | Herbicidal effect grade, C: Monochoria vaginalis (Monochoria vaginalis) | J: Alopecurus myosuroides, herbicidal effect (criteria of Test Example 1) (Alopecurus myosuroides [1]) | Effect on crop grade, e: wheat (wheat [2]) | Effect on crop grade, d: soybean (soybean) | Herbicidal effect grade, A: Echinochloa oryzacola Vasing. [3] | N: Amaranthus retroflexus, herbicidal effect (criteria of Test Example 1) (Amaranthus retroflexus) | Herbicidal effect grade, A: Echinochloa oryzacola Vasing. [4] | Herbicidal effect grade, J: Alopecurus myosuroides (Alopecurus myosuroides [5]) | Effect on crop grade, f: beet (beet) | herbicidal effect on E, grade 0-5 (Cyperus difformis) | e: wheat, effect on crop (criteria of Test Example 1) (wheat [6]) | Herbicidal effect grade, H: Echinochloa crus-galli var. crus-galli [7] |
| --- | --- | --- | --- | --- | --- | --- | --- | --- | --- | --- | --- | --- |
| CC(=O)CC1CC(O)=C(c2c(C)cc(OCc3ccccc3)cc2C)C1=O (stereo not drawn) [7-018] | 0 (Herbicidal ratio of 5% or lower (almost no effect)) | 0 (Herbicidal ratio of 5% or lower (almost no effect)) | 0 (Herbicidal ratio of 5% or lower (almost no effect)) | 0 (Herbicidal ratio of 5% or lower (almost no effect)) | 1 (Herbicidal ratio of 5% or higher and lower than 20%) | 0 (Herbicidal ratio of 5% or lower (almost no effect)) | 2 (Herbicidal ratio of 20% or higher and lower than 40%) | 0 (Herbicidal ratio of 5% or lower (almost no effect)) | 0 (Herbicidal ratio of 5% or lower (almost no effect)) | 3 (Herbicidal ratio of 40% or higher and lower than 70%) | 0 (Herbicidal ratio of 5% or lower (almost no effect)) | 0 (Herbicidal ratio of 5% or lower (almost no effect)) |
| COc1cc(C)c(C2=C(O)CC(CC(C)=O)C2=O)c(C)c1 (stereo not drawn) [7-020] | 0 (Herbicidal ratio of 5% or lower (almost no effect)) | 4 (Herbicidal ratio of 70% or higher and lower than 90%) | 0 (Herbicidal ratio of 5% or lower (almost no effect)) | 0 (Herbicidal ratio of 5% or lower (almost no effect)) | 1 (Herbicidal ratio of 5% or higher and lower than 20%) | 0 (Herbicidal ratio of 5% or lower (almost no effect)) | 2 (Herbicidal ratio of 20% or higher and lower than 40%) | 3 (Herbicidal ratio of 40% or higher and lower than 70%) | 0 (Herbicidal ratio of 5% or lower (almost no effect)) | 3 (Herbicidal ratio of 40% or higher and lower than 70%) | 0 (Herbicidal ratio of 5% or lower (almost no effect)) | 0 (Herbicidal ratio of 5% or lower (almost no effect)) |
| CC(=O)CC1CC(O)=C(c2c(C)cc(-n3cccn3)cc2C)C1=O (stereo not drawn) [7-024] | 0 (Herbicidal ratio of 5% or lower (almost no effect)) | 2 (Herbicidal ratio of 20% or higher and lower than 40%) | 0 (Herbicidal ratio of 5% or lower (almost no effect)) | 0 (Herbicidal ratio of 5% or lower (almost no effect)) | 1 (Herbicidal ratio of 5% or higher and lower than 20%) | 0 (Herbicidal ratio of 5% or lower (almost no effect)) | 2 (Herbicidal ratio of 20% or higher and lower than 40%) | 0 (Herbicidal ratio of 5% or lower (almost no effect)) | 0 (Herbicidal ratio of 5% or lower (almost no effect)) | 2 (Herbicidal ratio of 20% or higher and lower than 40%) | 0 (Herbicidal ratio of 5% or lower (almost no effect)) | 0 (Herbicidal ratio of 5% or lower (almost no effect)) |
